Experimental data: PubChem BioAssay AID2060336 (Molecular Pharmacology Branch, DTP, NCI, 2025)

Tested on: 958767-090-R-J1-PDC spheroid growth
Experiment: Anticancer human tumor 958767-090-R-J1-PDC patient-derived head and neck squamous carcinoma cell line growth inhibition [IpAb]
Conditions: spheroids with HUVEC and MSC; for IC50: curve of first compound; for viability, T/C: stronger effect = lower value; active = viability on the fitted dose curve at most 10% of control; inactive = the rest
How it was run: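 Multi-cell spheroids of 60% tumour cells, 25% HUVEC and 15% MSC in ultra-low-attachment U-bottom wells, treated with agents combined with ipatasertib or abemaciclib. Half-log ranges top out near clinical Cmax, or 10 microM when Cmax is unknown.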
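Also: spheroids exposed to agents for 7 days.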
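For viability, T/C in this document: 100% = DMSO vehicle control wells.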

CCCS(=O)(=O)Nc1ccc(F)c(C(=O)c2c[nH]c3ncc(-c4ccc(Cl)cc4)cc23)c1F + CCN1CCN(Cc2ccc(Nc3ncc(F)c(-c4cc(F)c5nc(C)n(C(C)C)c5c4)n3)nc2)CC1
8.26 µM: IC50 (second compound 0.1 µM)
9.2 µM: IC50 (second compound 0.0316 µM)
> 10 µM: IC50 (second compound 0.01 µM) | IC50 (second compound 0.316 µM) | IC50 (second compound 1 µM)
inactive: viability, T/C (second compound 0.01 µM, first compound 0.0316 µM) 93.1% | viability, T/C (second compound 0.01 µM, first compound 0.1 µM) 93.6% | viability, T/C (second compound 0.01 µM, first compound 0.316 µM) 91.4% | viability, T/C (second compound 0.01 µM, first compound 1 µM) 93.7% | viability, T/C (second compound 0.01 µM, first compound 3.16 µM) 87.7% | viability, T/C (second compound 0.01 µM, first compound 10 µM) 60.2% | viability, T/C (second compound 0.0316 µM, first compound 0.0316 µM) 88.5% | viability, T/C (second compound 0.0316 µM, first compound 0.1 µM) 93.2% | viability, T/C (second compound 0.0316 µM, first compound 0.316 µM) 92.1% | viability, T/C (second compound 0.0316 µM, first compound 1 µM) 73.6% | viability, T/C (second compound 0.0316 µM, first compound 3.16 µM) 62% | viability, T/C (second compound 0.0316 µM, first compound 10 µM) 48.3% | viability, T/C (second compound 0.1 µM, first compound 0.0316 µM) 83.3% | viability, T/C (second compound 0.1 µM, first compound 0.1 µM) 82% | viability, T/C (second compound 0.1 µM, first compound 0.316 µM) 82.9% | viability, T/C (second compound 0.1 µM, first compound 1 µM) 70.8% | viability, T/C (second compound 0.1 µM, first compound 3.16 µM) 71.7% | viability, T/C (second compound 0.1 µM, first compound 10 µM) 45.6% | viability, T/C (second compound 0.316 µM, first compound 0.0316 µM) 66.1% | viability, T/C (second compound 0.316 µM, first compound 0.1 µM) 54.8% | viability, T/C (second compound 0.316 µM, first compound 0.316 µM) 56.7% | viability, T/C (second compound 0.316 µM, first compound 1 µM) 67.8% | viability, T/C (second compound 0.316 µM, first compound 3.16 µM) 67.1% | viability, T/C (second compound 0.316 µM, first compound 10 µM) 44.4% | viability, T/C (second compound 1 µM, first compound 0.0316 µM) 89.5% | viability, T/C (second compound 1 µM, first compound 0.1 µM) 78.6% | viability, T/C (second compound 1 µM, first compound 0.316 µM) 74.9% | viability, T/C (second compound 1 µM, first compound 1 µM) 79.5% | viability, T/C (second compound 1 µM, first compound 3.16 µM) 69.5% | viability, T/C (second compound 1 µM, first compound 10 µM) 51.9%
